Source: patent US6914045B2, “Glycopeptide antibiotics” (Wyeth Holdings Corporation, priority 2001, dated 2005)
In brackets after ≈: the same amount, converted by molar mass.

Experiments:
Experiment in all cases: in vitro antibacterial evaluation, MIC by broth dilution
Assay type in all cases: cell-based
[1] = test system: Enterococcus sp.; details: broth dilution, 18 hours at 35° C.
Procedure, shortened: (§1)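 Step 1: dilute antibiotic across 64-0.06 μg/mL in Muller-Hinton II […]. Step 2: inoculate at 5×10^5 CFU/mL.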

[2] = test system: Escherichia coli; details: 18 hours at 35° C.
Procedure, shortened: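 Read-out: the lowest concentration at which the test strain fails to grow. Serial dilutions (64-0.06 μg/mL) in Muller-Hinton II […], 5×10^5 CFU/mL inoculum, NCCLS M7-A2 procedure.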

[3] = test system: Staphylococcus sp.; details: broth dilution, 18 hours at 35° C.
Procedure, shortened: as §1

[4] = test system: Streptococcus sp.; details: broth dilution, 18 hours at 35° C.
Procedure, shortened: as §1

## CC(c1ccccc1)C1NC(=O)CNC(=O)C(CO)NC(=O)C(C(O)C2CNC(=N)N2C2OC(CO)C(O)C(O)C2O)NC(=O)C(C(O)C2CNC(=N)N2)NC(=O)C(Cc2ccc(OC3OC(CO)C(OC4OC(COC(=O)NCc5ccccc5)C(O)C(O)C4O)C(O)C3O)cc2)NC1=O (stereo not drawn) [Example 257b]
[1]; Enterococcus avium (GC 4558)
  MIC Enterococcus avium (GC 4558): 0.5 µg/mL (≈ 0.35 µM)
[1]; Enterococcus faecalis (ATCC 29212)
  MIC Enterococcus faecalis (ATCC 29212): 0.5 µg/mL (≈ 0.35 µM)
[1]; Enterococcus faecalis (GC 4553)
  MIC Enterococcus faecalis (GC 4553): 0.5 µg/mL (≈ 0.35 µM)
[1]; Enterococcus faecalis (GC 4554)
  MIC Enterococcus faecalis (GC 4554): >0.5 µg/mL
[1]; Enterococcus faecalis (GC 6189)
  MIC Enterococcus faecalis (GC 6189): 0.5 µg/mL (≈ 0.35 µM)
[1]; Enterococcus faecium (GC 2243)
  MIC Enterococcus faecium (GC 2243): 16 µg/mL (≈ 11.2 µM)
[1]; Enterococcus faecium (GC 4556)
  MIC Enterococcus faecium (GC 4556): 16 µg/mL (≈ 11.2 µM)
[1]; Enterococcus faecium (GC 4557)
  MIC Enterococcus faecium (GC 4557): 2 µg/mL (≈ 1.4 µM)
[1]
  MIC Enterococcus faecalis (GC 2242): 0.5 µg/mL (≈ 0.35 µM)
  MIC Enterococcus faecalis (GC 2691): 0.5 µg/mL (≈ 0.35 µM)
  MIC Enterococcus faecalis (GC 3059): 0.5 µg/mL (≈ 0.35 µM)
  MIC Enterococcus faecalis (GC 4552): >0.5 µg/mL
[1]; strain ATCC 29212
  MIC Enterococcus faecalis (ATCC 29212): 0.5 µg/mL (≈ 0.35 µM)
[1]; strain GC 2242
  MIC Enterococcus faecalis (GC 2242): 0.5 µg/mL (≈ 0.35 µM)
[1]; strain GC 2243
  MIC Enterococcus faecium (GC 2243): 16 µg/mL (≈ 11.2 µM)
[1]; strain GC 2691
  MIC Enterococcus faecalis (GC 2691): 0.5 µg/mL (≈ 0.35 µM)
[1]; strain GC 3059
  MIC Enterococcus faecalis (GC 3059): 0.5 µg/mL (≈ 0.35 µM)
[1]; strain GC 4552
  MIC Enterococcus faecalis (GC 4552): >0.5 µg/mL
[1]; strain GC 4553
  MIC Enterococcus faecalis (GC 4553): 0.5 µg/mL (≈ 0.35 µM)
[1]; strain GC 4554
  MIC Enterococcus faecalis (GC 4554): >0.5 µg/mL
[1]; strain GC 4556
  MIC Enterococcus faecium (GC 4556): 16 µg/mL (≈ 11.2 µM)
[1]; strain GC 4557
  MIC Enterococcus faecium (GC 4557): 2 µg/mL (≈ 1.4 µM)
[1]; strain GC 4558
  MIC Enterococcus avium (GC 4558): 0.5 µg/mL (≈ 0.35 µM)
[1]; strain GC 6189
  MIC Enterococcus faecalis (GC 6189): 0.5 µg/mL (≈ 0.35 µM)
[2]; Escherichia coli (ATCC 25922)
  MIC Escherichia coli (ATCC 25922): >0.5 µg/mL
[2]; Escherichia coli (GC 4559)
  MIC Escherichia coli (GC 4559): >0.5 µg/mL
[2]; Escherichia coli (GC 4560)
  MIC Escherichia coli (GC 4560): 0.5 µg/mL (≈ 0.35 µM)
[3]
  MIC Coagulase Negative Staphylococcus (GC 4547): 2 µg/mL (≈ 1.4 µM)
  MIC Coagulase Negative Staphylococcus (GC 4548): 2 µg/mL (≈ 1.4 µM)
  MIC Coagulase Negative Staphylococcus (GC 4549): 2 µg/mL (≈ 1.4 µM)
  MIC Coagulase Negative Staphylococcus (GC 4551): 4 µg/mL (≈ 2.8 µM)
  MIC Coagulase Negative Staphylococcus (GC 6257): 1 µg/mL (≈ 0.7 µM)
  MIC Staphylococcus aureus (ATCC 29213): 0.5 µg/mL (≈ 0.35 µM)
  MIC Staphylococcus aureus (GC 1131): 0.5 µg/mL (≈ 0.35 µM)
  MIC Staphylococcus aureus (GC 3051): 0.5 µg/mL (≈ 0.35 µM)
  MIC Staphylococcus aureus (GC 3053): 0.5 µg/mL (≈ 0.35 µM)
  MIC Staphylococcus aureus (GC 4541): 0.5 µg/mL (≈ 0.35 µM)
  MIC Staphylococcus aureus (GC 4542): 0.5 µg/mL (≈ 0.35 µM)
  MIC Staphylococcus aureus (GC 4544): 0.5 µg/mL (≈ 0.35 µM)
  MIC Staphylococcus aureus (GC 4545): 0.5 µg/mL (≈ 0.35 µM)
  MIC Staphylococcus aureus-SMITH (GC 4543): 0.5 µg/mL (≈ 0.35 µM)
  MIC Staphylococcus haemolyticus (GC 4546): 2 µg/mL (≈ 1.4 µM)
[3]; strain ATCC 29213
  MIC Staphylococcus aureus (ATCC 29213): 0.5 µg/mL (≈ 0.35 µM)
[3]; strain GC 1131
  MIC Staphylococcus aureus (GC 1131): 0.5 µg/mL (≈ 0.35 µM)
[3]; strain GC 3051
  MIC Staphylococcus aureus (GC 3051): 0.5 µg/mL (≈ 0.35 µM)
[3]; strain GC 3053
  MIC Staphylococcus aureus (GC 3053): 0.5 µg/mL (≈ 0.35 µM)
[3]; strain GC 4541
  MIC Staphylococcus aureus (GC 4541): 0.5 µg/mL (≈ 0.35 µM)
[3]; strain GC 4542
  MIC Staphylococcus aureus (GC 4542): 0.5 µg/mL (≈ 0.35 µM)
[3]; strain GC 4544
  MIC Staphylococcus aureus (GC 4544): 0.5 µg/mL (≈ 0.35 µM)
[3]; strain GC 4545
  MIC Staphylococcus aureus (GC 4545): 0.5 µg/mL (≈ 0.35 µM)
[4]
  MIC Streptococcus agalactiae (GC 4564): 1 µg/mL (≈ 0.7 µM)
  MIC Streptococcus pneumoniae (ATCC 6301): 0.25 µg/mL (≈ 0.175 µM)
  MIC Streptococcus pneumoniae (GC 1894): 0.25 µg/mL (≈ 0.175 µM)
  MIC Streptococcus pneumoniae (GC 4565): 0.5 µg/mL (≈ 0.35 µM)
  MIC Streptococcus pyogenes (GC 4563): 0.12 µg/mL (≈ 0.084 µM)
[4]; strain ATCC 6301
  MIC Streptococcus pneumoniae (ATCC 6301): 0.25 µg/mL (≈ 0.175 µM)
[4]; strain GC 1894
  MIC Streptococcus pneumoniae (GC 1894): 0.25 µg/mL (≈ 0.175 µM)
[4]; strain GC 4563
  MIC Streptococcus pyogenes (GC 4563): 0.12 µg/mL (≈ 0.084 µM)
[4]; strain GC 4564
  MIC Streptococcus agalactiae (GC 4564): 1 µg/mL (≈ 0.7 µM)
[4]; strain GC 4565
  MIC Streptococcus pneumoniae (GC 4565): 0.5 µg/mL (≈ 0.35 µM)
